Reference: publication PMC4738305, “Metabolism and Disposition of Aditoprim in Swine, Broilers, Carp and Rats” (Scientific Reports, 2016)

Assays:
[1] = Radioactivity excretion (mass balance) after a single oral dose of ^3H-ADP; format: in vivo; details: single oral 5 mg/kg b. w., within 14 d
Experimental: Animals (4 swine, 6 broilers, 6 carp, and 3 male and 3 female rats) were housed individually in clean, suspended wire-mesh metabolism cages, designed to separate the urine from the feces (carp were raised in individual aquaria). Each animal was weighed and assigned with a permanent identification number. A single dose of ^3 H-ADP (5 mg/kg b. w., 0.1 Ci/g) was administered via the oral gavage. Excreta were collected on ice at the pre-administration, in the period of 6, 12, and 24 h on day 1 d, and afterwards, intermittently in the period of 24 h up to 14 d. The piscine excreta were collected by changing and collecting raised water. The total volume or weight of each sample was measured and homogenized. The total radioactivity levels were determined through LSC for the recovery calculations. After the preparation, the samples were analyzed through LC/MS-IT-TOF with v. […] The pretreatment samples were used as controls to determine the background radioactivity or the endogenous nondrug-related ions observed within respective matrices or their extracts.
Measurements of the total radioactivity in each sample were conducted by Packard Tri-Carb 2900 TR liquid scintillation counter (PerkinElmer Life and Analytical Sciences). […] The actual radioactivity of each sample was calculated by subtracting the background value form the mean radioactivity in two blank samples. […]

[2] = Tissue distribution and elimination of total radioactivity (total residues) after oral ^3H-ADP for 7 d; format: in vivo; details: rats, 5 mg/kg b.w. 7 days
Experimental: (0.1 Ci/g) through oral gavage for 7 consecutive days. All the animals were housed on the basis of their group in the cages or aquaria throughout the whole study period. A group of animals was slaughtered through exsanguination under diethyl ether inhalation of anesthesia in the period of 6 h, 1, 3, 7, 14, and 21 d after the administration. The blood samples were immediately collected into the heparinized tubes and was centrifuged at 1920 × g at 4 °C for 10 min to obtain the plasma. The tissues from the heart, liver, spleen, lung, kidney, craw (broilers), stomach, intestine, fat, skin, muscle, thymus, pancreas, bile, bladder, hair (scale for carp), genital gland, adrenal glands, swim bladder (carp), brain, lymph, and bursa (broilers) were carefully excised and collected. The tissues were thoroughly rinsed with the deionized water to remove the residuary blood, blotted to dryness, and finally to perform the homogenization. In order to avoid cross-contamination the dissecting instruments were washed during the tissue procurements. The blank tissues were collected in order to provide control matrices. The total radioactivity levels in each sample were determined through LSC. The samples extracted from the plasma, bile, and tissues of the liver, kidney, muscle, and fat/skin were analyzed through LC/MS-IT-TOF and v. ARC radiometric detection for metabolite profiling.
Measurements of the total radioactivity in each sample were conducted by Packard Tri-Carb 2900 TR liquid scintillation counter (PerkinElmer Life and Analytical Sciences). The detection time was 10 min for two cycles. The scintillation counter data were automatically corrected for counting efficiency by instrument-stored quench curve which was drawn with a series of sealed quenched […] standards. The actual radioactivity of each sample was calculated by subtracting the background value form the mean radioactivity in two blank samples. All the samples were analyzed in duplicate if the sample size allowed this. If the results were differed by more than 10% from the mean value, the samples were reanalyzed. The samples with LSC counts less than 2-fold of the level of the running background were considered to contain insufficient radioactivity for reliable quantification.
Aliquots of liquid samples (urine, plasma, bile and raised water, 200 μL) were mixed with 10 mL of Ultima Gold^TM scintillation fluid for the direct analysis by LSC. Aliquots of solid samples (feces and tissues, 200 mg) were digested overnight with 2 mL tissue solubilizer at 50 °C in a shaking water bath, followed by adding 200 μL of 0.1 mol/L EDTA-Na and 200 μL of 30% H2O2, and was bathed at 50 °C for 2 h to bleach. The obtained transparent liquid were mixed with 10 mL of scintillation fluid and finally were counted by LSC. The digestion efficiency was determined by using the blank samples spiked with ^3 H standard for digestion, and the measured radioactivity content in the digested samples were adjusted by using the digestion efficiency values.
The concentrations of ADP and/or its metabolites were analyzed by using the following equation: C = L/(2.22 × 10^9 × RM), where C is the concentration of ADP or/and its metabolites (mg/kg), L is the LSC count (dpm), R is the specific activity of the administered dose (0.1 Ci/g), and M is the weight or volume of samples (kg or L). The results are expressed as mean ± SD. The elimination kinetics of terminal phase for ADP and its metabolites were conducted by using the WinNonlin linear regression program (Pharsight corporation, Statistical consultants, Inc., Kentucky, USA).

What does the source list for `COc1cc(Cc2cnc(N)nc2N)cc(OC)c1N(C)C` [A0, 2,4-Diamino-5-[4-(dimethylamino)-3,5-dimethoxybenzyl] pyrimidine]?
urine excretion of radioactivity ([1]; rats): 78 % of the administered dose; urine excretion of radioactivity ([1]; swine): 78 % of the administered dose

Which “Elimination kinetics Ke” value ([2]; Adrenal) does the source give for `[3H]c1c(Cc2cnc(N)nc2N)cc(OC)c(N(C)C)c1OC` [^3H-ADP] here?
Its value is 0.28.

And the “Elimination kinetics Ke” value ([2]; Bladder)?
The value was 0.56.

And the “Elimination kinetics t1/2” value ([2]; Bladder)?
Its value is 29.5 h.

And the “Elimination kinetics Ke” value ([2]; Blood)?
The value was 0.22.

And the “Elimination kinetics t1/2” value ([2]; Blood)?
The value was 75.4 h.

And the “Elimination kinetics Ke” value ([2]; Brain)?
Its value is 0.26.

What about the “Elimination kinetics t1/2” value ([2]; Brain) of the same compound?
Its value is 64.6 h.

And the “Elimination kinetics Ke” value ([2]; Fat)?
The value was 0.26.

What about the “Elimination kinetics Ke” value ([2]; Gonades) of the same compound?
The value was 0.40.

And the “Elimination kinetics t1/2” value ([2]; Gonades)?
The value was 41.5 h.

What about the “Elimination kinetics Ke” value ([2]; Heart) of the same compound?
Its value is 0.24.

What about the “Elimination kinetics t1/2” value ([2]; Heart) of the same compound?
The value was 70.8 h.

What about the “Elimination kinetics Ke” value ([2]; Kidney) of the same compound?
Its value is 0.21.

What about the “Elimination kinetics Ke” value ([2]; Large Intestine) of the same compound?
Its value is 0.40.

And the “Elimination kinetics t1/2” value ([2]; Large Intestine)?
Its value is 41.3 h.

And the “Elimination kinetics Ke” value ([2]; Liver)?
Its value is 0.18.

What about the “Elimination kinetics Ke” value ([2]; Lung) of the same compound?
The value was 0.24.

What about the “Elimination kinetics t1/2” value ([2]; Lung) of the same compound?
Its value is 69.1 h.

And the “Elimination kinetics Ke” value ([2]; Muscle)?
The value was 0.25.

And the “Elimination kinetics Ke” value ([2]; Pancreas)?
Its value is 0.26.

What about the “Elimination kinetics t1/2” value ([2]; Pancreas) of the same compound?
Its value is 63.6 h.

And the “Elimination kinetics Ke” value ([2]; Skin)?
Its value is 0.19.

What about the “Elimination kinetics t1/2” value ([2]; Skin) of the same compound?
Its value is 86.2 h.

And the “Elimination kinetics Ke” value ([2]; Small Intestine)?
The value was 0.36.

And the “Elimination kinetics t1/2” value ([2]; Small Intestine)?
Its value is 46.3 h.

What about the “Elimination kinetics Ke” value ([2]; Spleen) of the same compound?
Its value is 0.24.

What about the “Elimination kinetics t1/2” value ([2]; Spleen) of the same compound?
Its value is 69.4 h.

And the “Elimination kinetics Ke” value ([2]; Stomach)?
The value was 0.27.

And the “Elimination kinetics t1/2” value ([2]; Stomach)?
Its value is 62.6 h.

And the “Elimination kinetics Ke” value ([2]; Thymus)?
The value was 0.35.

What about the “Elimination kinetics t1/2” value ([2]; Thymus) of the same compound?
The value was 48.2 h.
